Experimental data published in patent US20230047905A1, “COMPOUNDS AND COMPOSITIONS FOR TREATING CONDITIONS ASSOCIATED WITH STING ACTIVITY” (IFM Due, Inc., priority 2018, published 2023).

The compounds below were run on Human STING (assay: STING reporter assay (luciferase) in THP1-Dual KO-IFNAR2 cells activated with 2'3'cGAMP). Conditions: 15 μM 2'3'cGAMP, 24h, class symbols.
Format: cell-based
Protocol: STING Pathway Modulation by the Compounds Described Herein was Measured Using THP1-Dual™ Cells (KO-IFNAR2).
THP1-Dual™ KO-IFNAR2 Cells (obtained from invivogen) were maintained in RPMI, 10% FCS, 5 ml P/S, 2 mM L-glut, 10 mM Hepes, and 1 mM sodium pyruvate. Compounds were spotted in empty 384 well tissue culture plates (Greiner 781182) by Echo for a final concentration of 0.0017-100 μM. Cells were plated into the TC plates at […], 2×10E6 cells/mL. For activation with STING ligand, 2′3′cGAMP (MW 718.38, obtained from Invivogen), was prepared in Optimem media.
The following solutions were prepared for each 1×384 plate: • Solution A: 2 mL Optimem with one of the following stimuli: • 60 uL of 10 mM 2′3′cGAMP ->150 μM stock • Solution B: 2 mL Optimem with 60 μL Lipofectamine 2000->Incubate 5 min at RT
2 mL of solution A and 2 ml Solution B was mixed and incubated for 20 min at room temperature (RT). 20 μL of transfection solution (A+B) was added on top of the plated cells, with a final 2′3′cGAMP concentration of 15 μM. The plates were then centrifuged immediately at 340 g for 1 minute, after which they were incubated at 37° C., 5% CO2, >98% humidity for 24h. Luciferase reporter activity was then measured. EC50 values were calculated by using standard methods known in the art.
Luciferase reporter assay: 10 μL of supernatant from the assay was transferred to white 384-plate with flat bottom and squared wells. One pouch of QUANTI-Luc™ Plus was dissolved in 25 mL of water. 100 μL of QLC Stabilizer per 25 mL of QUANTI-Luc™ Plus solution was added. 50 μL of QUANTI-Luc™ Plus/QLC solution per well was then added. Luminescence was measured on a Platereader (e.g., Spectramax I3X (Molecular Devices GF3637001)).
Luciferase reporter activity was then measured. EC50 or IC50 values were calculated by using standard methods known in the art.

SMILES	IC50
NS(=O)(=Nc1c[nH]c2cc(F)c(F)cc12)c1ccc(C(F)(F)F)cc1 (racemic) [Compound 2b]	1 to 5 µM
NS(=O)(=Nc1c[nH]c2cc(F)c(F)cc12)c1ccc(C(F)(F)F)cc1 (racemic) [Compound 2a]	0.2 to 1 µM

The remaining lines, values ahead:

IC50	SMILES
5 to 100 µM	Cc1ccccc1S(N)(=O)=Nc1c[nH]c2ccccc12 (racemic) [Compound 110a]
5 to 100 µM	Cc1ccc(S(N)(=O)=Nc2c[nH]c3ccccc23)cc1 (racemic) [Compound 111b]
1 to 5 µM	Cc1ccccc1S(N)(=O)=Nc1c[nH]c2ccccc12 (racemic) [Compound 110b]
1 to 5 µM	Cc1ccc(S(N)(=O)=Nc2c[nH]c3ccccc23)cc1 (racemic) [Compound 111a]

Same assay, conditions: Homo sapiens, THP1-Dual, 24 h, 15 μM 2'3'cGAMP, class symbols

SMILES	IC50
NS(=O)(=Nc1c[nH]c2ccccc12)c1ccc(C(F)(F)F)cc1 (stereo not drawn) [Compound 1, N′-(1H-indol-3-yl)-4-(trifluoromethyl)benzenesulfonimidamide]	0.2 to 1 µM
CN(C)S(=O)(=Nc1c[nH]c2ccccc12)c1ccc(C(F)(F)F)cc1 (stereo not drawn) [Compound 36, N′-(1H-indol-3-yl)-N,N-dimethyl-4-(trifluoromethyl)benzenesulfonimidamide]	5 to 100 µM
CS(=O)(=O)n1cc(N=S(N)(=O)c2ccc(C(F)(F)F)cc2)c2ccccc21 (stereo not drawn) [Compound 104]	5 to 100 µM
NS(=O)(=Nc1c[nH]c2ccccc12)c1ccc(Cl)cc1 (stereo not drawn) [Compound 109]	1 to 5 µM
Cc1ccccc1S(N)(=O)=Nc1c[nH]c2ccccc12 (stereo not drawn) [Compound 110]	5 to 100 µM
NS(=O)(=Nc1c[nH]c2ncc(F)cc12)c1ccc(C(F)(F)F)cc1 (stereo not drawn) [Compound 117]	5 to 100 µM
Cc1ccc(S(N)(=O)=Nc2c[nH]c3ccccc23)cc1 (stereo not drawn) [Compound 111]	5 to 100 µM
NS(=O)(=Nc1c[nH]c2ccccc12)c1ccc(F)cc1 (stereo not drawn) [Compound 108]	5 to 100 µM
CNS(=O)(=Nc1c[nH]c2ccccc12)c1ccc(C(F)(F)F)cc1 (stereo not drawn) [Compound 112, N′-(1H-indol-3-yl)-N-methyl-4-(trifluoromethyl)benzenesulfonimidamide]	5 to 100 µM
NS(=O)(=Nc1c[nH]c2ccccc12)c1ccc(Cl)cc1 (racemic) [Compound 109a]	1 to 5 µM
CCCCc1ccc(S(=N)(=O)Nc2ccc3[nH]ccc3c2)cc1 (stereo not drawn) [Compound 53]	5 to 100 µM
CCOC(=O)NS(=O)(=Nc1c[nH]c2ccccc12)c1ccc(C(F)(F)F)cc1 (stereo not drawn) [Compound 103]	5 to 100 µM
NS(=O)(=Nc1c[nH]c2ccccc12)c1ccc(F)cc1 (racemic) [Compound 108a]	5 to 100 µM
CCCCc1ccc(S(=N)(=O)Nc2ccc3cc[nH]c3c2)cc1 (stereo not drawn) [Compound 101]	5 to 100 µM
NS(=O)(=Nc1c[nH]c2cc(F)c(F)cc12)c1ccc(C(F)(F)F)cc1 (stereo not drawn) [Compound 2]	1 to 5 µM
Cc1cccc(S(N)(=O)=Nc2c[nH]c3ccccc23)c1 (stereo not drawn) [Compound 106]	5 to 100 µM
N#Cc1ccc2[nH]cc(N=S(N)(=O)c3ccc(C4CC4)cc3)c2c1 (stereo not drawn) [Compound 115]	5 to 100 µM
CNS(=O)(=Nc1cn(C)c2ccccc12)c1ccc(C(F)(F)F)cc1 (stereo not drawn) [Compound 105, N-methyl-N′-(1-methyl-1H-indol-3-yl)-4-(trifluoromethyl)benzenesulfonimidamide]	5 to 100 µM
CCCCc1ccc(S(N)(=O)=Nc2c[nH]nc2-c2ccccc2)cc1 (stereo not drawn) [Compound 113]	5 to 100 µM
CC(C)OC(=O)NS(=O)(=Nc1c[nH]c2ccccc12)c1ccc(C(F)(F)F)cc1 (stereo not drawn) [Compound 102]	5 to 100 µM
N[S@](=O)(=Nc1c[nH]c2ccccc12)c1ccc(C(F)(F)F)cc1 (single isomer, unassigned) [Compound 1a, (S or R)—N-(1H-indol-3-yl)-4-(trifluoromethyl)benzenesulfonimidamide]	1 to 5 µM
N#Cc1ccc2[nH]cc(N=S(N)(=O)c3ccc(C(F)(F)F)cc3)c2c1 (racemic) [Compound 5a]	5 to 100 µM
N[S@@](=O)(=Nc1c[nH]c2ccccc12)c1ccc(C(F)(F)F)cc1 (single isomer, unassigned) [Compound 1b, (R or S)—N-(1H-indol-3-yl)-4-(trifluoromethyl)benzenesulfonimidamide]	0.2 to 1 µM
CCCCc1ccc(S(N)(=O)=Nc2c[nH]c3ncc(F)cc23)cc1 (racemic) [Compound 116]	5 to 100 µM
N#Cc1cnc2[nH]cc(N=S(N)(=O)c3ccc(C(F)(F)F)cc3)c2c1 (stereo not drawn) [Compound 114]	5 to 100 µM
COC(=O)NS(=O)(=Nc1c[nH]c2ccccc12)c1ccc(C(F)(F)F)cc1 (stereo not drawn) [Compound 107, methyl (N-(1H-indol-3-yl)-4-(trifluoromethyl)phenylsulfonimidoyl)carbamate]	5 to 100 µM

More lines, now with the values ahead:

IC50	SMILES
5 to 100 µM	CCCCc1ccc(S(N)(=O)=Nc2c[nH]nc2-c2ccccc2)cc1 (racemic) [Compound 113a]
5 to 100 µM	N#Cc1cnc2[nH]cc(N=S(N)(=O)c3ccc(C(F)(F)F)cc3)c2c1 (racemic) [Compound 114a]
5 to 100 µM	NS(=O)(=Nc1c[nH]c2ncc(F)cc12)c1ccc(C(F)(F)F)cc1 (racemic) [Compound 117a]
5 to 100 µM	N#Cc1ccc2[nH]cc(N=S(N)(=O)c3ccc(C4CC4)cc3)c2c1 (racemic) [Compound 115a]

Same assay, conditions: Homo sapiens, THP1-Dual, 24 h, 15 μM 2'3'cGAMP, given as numeric bound

IC50	SMILES
≥ 100 µM	NS(=O)(=Nc1c[nH]nc1-c1ccccc1)c1ccc(C(F)(F)F)cc1 (racemic) [Compound 119a]
≥ 100 µM	NS(=O)(=Nc1c[nH]nc1-c1ccccc1)c1ccc(C(F)(F)F)cc1 (stereo not drawn) [Compound 119]
≥ 100 µM	N#Cc1cnc2[nH]cc(N=S(N)(=O)c3ccc(C(F)(F)F)cc3)c2c1 (racemic) [Compound 114b]
